In article PMC7375020 (Frontiers in Cell and Developmental Biology, 2020):
Marks after values point to notes of the source that are not given here.

Experiments:
[1] = test system: tested human cancer cell lines; assay: In vitro antiproliferative assay (MTT), all tested tumor cell lines; type: cell-based
Method: (§1) All cell lines were maintained in Roswell Park Memorial Institute (RPMI) 1640 medium containing 10% fetal bovine serum at 37°C in a 5% CO2 humidified incubator. The cell proliferation assay was determined by the MTT (3-[4,5-dimethyl-2-thiazolyl]-2,5-diphenyl-2H-tetrazolium bromide) method. Briefly, cells were passaged the day before dosing into a 96-well plate, allowed to grow for 12 h, and then treated with different concentrations of compound for 72 h. A 0.5% MTT solution was added to each well. After incubation for another 4 h, formazan formed from MTT was extracted by adding 200 μL of DMSO. Absorbance was then determined using a microplate reader at 570 nm.

[2] = test system: HEL; assay: In vitro antiproliferative assay (MTT), HEL; type: cell-based; details: Homo sapiens, 72 h
Method: as §1, with “The” for “All cell lines were maintained in Roswell Park Memorial Institute (RPMI) 1640 medium containing 10% fetal bovine serum at 37°C in a 5% CO2 humidified incubator. The”

[3] = test system: MDA-MB-231; assay: In vitro antiproliferative assay (MTT), MDA-MB-231; type: cell-based; details: Homo sapiens, 72 h
Method: as §1, with “The” for “All cell lines were maintained in Roswell Park Memorial Institute (RPMI) 1640 medium containing 10% fetal bovine serum at 37°C in a 5% CO2 humidified incubator. The”

[4] = target: T1, HDAC6 (Homo sapiens, UniProt Q9UBN7); assay: In vitro HDAC inhibition fluorescent assay, HDAC6; type: biochemical; details: Boc-Lys(acetyl)-AMC substrate
T1 sequence (Q9UBN7 1-1215): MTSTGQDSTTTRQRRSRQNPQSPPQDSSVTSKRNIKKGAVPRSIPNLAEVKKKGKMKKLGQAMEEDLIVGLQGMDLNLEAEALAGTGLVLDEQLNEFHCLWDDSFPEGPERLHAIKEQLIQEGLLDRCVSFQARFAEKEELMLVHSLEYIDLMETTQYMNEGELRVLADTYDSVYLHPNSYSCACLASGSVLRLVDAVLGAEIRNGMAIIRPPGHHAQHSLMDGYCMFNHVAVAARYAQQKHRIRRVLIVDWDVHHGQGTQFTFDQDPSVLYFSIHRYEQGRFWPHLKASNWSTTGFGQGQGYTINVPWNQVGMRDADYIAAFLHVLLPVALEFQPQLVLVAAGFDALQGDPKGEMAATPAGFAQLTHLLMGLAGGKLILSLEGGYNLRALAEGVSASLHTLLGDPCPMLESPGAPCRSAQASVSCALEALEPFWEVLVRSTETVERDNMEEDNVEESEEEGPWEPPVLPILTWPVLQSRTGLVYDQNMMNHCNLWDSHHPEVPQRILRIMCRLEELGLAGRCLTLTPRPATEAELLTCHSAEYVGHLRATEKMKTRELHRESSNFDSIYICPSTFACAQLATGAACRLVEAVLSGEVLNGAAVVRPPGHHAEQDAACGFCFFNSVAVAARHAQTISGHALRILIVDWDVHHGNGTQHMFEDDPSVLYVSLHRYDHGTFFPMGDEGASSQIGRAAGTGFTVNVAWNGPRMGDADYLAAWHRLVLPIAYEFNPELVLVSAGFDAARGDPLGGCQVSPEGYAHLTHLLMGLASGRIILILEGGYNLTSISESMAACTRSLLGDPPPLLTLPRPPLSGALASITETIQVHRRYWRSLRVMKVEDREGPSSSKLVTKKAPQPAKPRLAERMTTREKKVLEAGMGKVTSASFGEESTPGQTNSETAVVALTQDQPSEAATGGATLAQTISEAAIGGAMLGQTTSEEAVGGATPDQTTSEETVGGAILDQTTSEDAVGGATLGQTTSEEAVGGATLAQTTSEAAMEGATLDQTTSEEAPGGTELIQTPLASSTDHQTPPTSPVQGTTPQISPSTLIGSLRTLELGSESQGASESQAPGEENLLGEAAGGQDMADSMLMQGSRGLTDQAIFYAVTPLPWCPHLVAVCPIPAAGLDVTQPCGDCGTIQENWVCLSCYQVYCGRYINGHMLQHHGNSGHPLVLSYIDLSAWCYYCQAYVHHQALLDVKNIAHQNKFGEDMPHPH
Method: (§2) An aliquot of 10 μL of enzyme solution (HeLa cell nuclear extract, HDAC2, HDAC6, or HDAC8) was mixed with different concentrations of test compound (50 μL). The mixture was incubated at 37°C for 5 min, followed by the addition of 40 μL of fluorogenic substrate tert-butyl (S)-(6-acetamido- 1-((4-methyl-2-oxo-2H-chromen-7-yl)amino)-1-oxohexan-2-yl) carbamate (Boc-Lys(acetyl)-AMC) for HeLa cell nuclear extracts, HDAC2, and HDAC6; tert-butyl (S)-(1-((4-methyl- 2-oxo-2H-chromen-7-yl)amino)-1-oxo-6-(2,2,2-trifluoroacetam ido)hexan-2-yl)carbamate (Boc-Lys(trifluoroacetyl)-AMC) for HDAC8). After incubation at 37°C for 30 min, the mixture was quenched by the addition of 100 μL of developer containing trypsin and trichostatin A. Following incubation at 37°C for 20 min, the fluorescence intensity was measured using a microplate reader at excitation and emission wavelengths of 390 and 460 nm, respectively. The inhibition ratios were calculated from the fluorescence intensity readout of tested wells relative to those of control wells, and the half maximal inhibitory concentration (IC50) values were calculated using the prism non-linear curve-fitting method.

[5] = target: HDAC2 (Homo sapiens, UniProt Q92769); assay: In vitro HDAC inhibition fluorescent assay, HDAC2; type: biochemical; details: Boc-Lys(acetyl)-AMC substrate
Method: as §2

[6] = test system: MDA-MB-231 xenograft; type: in vivo; details: oral 30 mg/kg/day
Method: Ten days after injection, tumors were palpable and mice were randomized into treatment and control groups (six mice per group). […] Subcutaneous tumors were measured with a vernier caliper every 3 days. Tumor volumes (V) were estimated using the equation (V = ab^2/2, where a and b are the longest and shortest diameter, respectively). The body weight of the mice was also monitored regularly. At the end of the experimental period, mice were sacrificed and the tumor tissues were dissected and weighed. Tumor growth inhibition (TGI) and the relative increment ratio (T/C) were calculated at the end of treatment to reveal the antitumor effects in tumor weight and tumor volume, respectively.
• TGI = (the mean tumor weight of control group – the mean tumor weight of treated group)/the mean tumor weight of control group. • T/C = the mean RTV of treated group (T)/the mean RTV of blank control group (C).
where the relative tumor volume (RTV) is Vt/V0 (Vt is the tumor volume measured at the end of treatment; V0 is the tumor volume measured at the beginning of the treatment).
All the obtained data were used to evaluate the antitumor potency and toxicity of compounds. Data were analyzed by Student’s one-tailed t-test.

[7] = test system: MOLT-4; assay: In vitro antiproliferative assay (MTT), MOLT-4; type: cell-based; details: Homo sapiens, 72 h
Method: as §1, with “The” for “All cell lines were maintained in Roswell Park Memorial Institute (RPMI) 1640 medium containing 10% fetal bovine serum at 37°C in a 5% CO2 humidified incubator. The”

[8] = test system: MCF-7; assay: In vitro antiproliferative assay (MTT), MCF-7; type: cell-based; details: Homo sapiens, MCF7, 72 h
Method: as §1, with “The” for “All cell lines were maintained in Roswell Park Memorial Institute (RPMI) 1640 medium containing 10% fetal bovine serum at 37°C in a 5% CO2 humidified incubator. The”

[9] = test system: SK-N-BE(2); assay: In vitro antiproliferative assay (MTT), SK-N-BE(2); type: cell-based; details: Homo sapiens, SKNBE2, 72 h
Method: as §1, with “The” for “All cell lines were maintained in Roswell Park Memorial Institute (RPMI) 1640 medium containing 10% fetal bovine serum at 37°C in a 5% CO2 humidified incubator. The”

[10] = In vitro metabolic stability assay in human plasma; type: in vitro ADME; details: 37°C, LC-MS/MS, read-out: t1/2 Human plasma
Method: (§3) Human plasma samples containing compound 1 were incubated at 37°C. At the specific time points, samples were added to acetonitrile to terminate the reaction, then subjected to vortex mixing for 5 min and stored in a freezer at –80°C. Before analysis, the samples were centrifuged. The remainder of 1 in the supernatants was analyzed by liquid chromatography with tandem mass spectrometry (LC-MS/MS). The t1/2(half–time) values were calculated using the equation t1/2(half–time) = −0.693/k, where k is the slope found in the linear fit of the natural logarithm of the fraction remaining of compound 1 versus incubation time.

[11] = In vitro metabolic stability assay in human liver microsomes; type: in vitro ADME; details: with NADPH, 37°C, LC-MS/MS, read-out: t1/2 Human liver microsomes
Method: as §3, with “Human liver microsomes” for “Human plasma samples”, “incubated with NADPH” for “incubated”, “by LC-MS/MS.” for “by liquid chromatography with tandem mass spectrometry (LC-MS/MS).”, “equation t1/2” for “equation t1/2(half–time)”

[12] = test system: acetyl-histone H4 and acetyl-α-tubulin in MDA-MB-231 cells; assay: Western blot analysis of intracellular HDAC inhibition; type: cell-based, human; details: for level of acetyl-histone H4 / level of acetyl-α-tubulin: 3 h, immunoblot
Method: The MDA-MB-231 cells were treated with compounds or DMSO for a specified period of time. Then the cells were washed twice with cold phosphate-buffered saline (PBS) and lysed in ice-cold radioimmunoprecipitation assay (RIPA) buffer. Lysates were cleared by centrifugation. Protein concentrations were determined using the bicinchoninic acid assay. Equal amounts of cell extracts were then resolved by sodium dodecyl sulfate–polyacrylamide gel electrophoresis, transferred to nitrocellulose membranes, and probed with acetyl-histone H4 antibody (intracellular substrate of HDAC1 and HDAC2), acetyl-α-tubulin antibody (intracellular substrate of HDAC6), and β-actin antibody (used as a loading control), respectively. Blots were detected using an enhanced chemiluminescence system.

[13] = test system: KG-1; assay: In vitro antiproliferative assay (MTT), KG-1; type: cell-based; details: Homo sapiens, 72 h
Method: as §1, with “The” for “All cell lines were maintained in Roswell Park Memorial Institute (RPMI) 1640 medium containing 10% fetal bovine serum at 37°C in a 5% CO2 humidified incubator. The”

[14] = test system: HeLa cell nuclear extract; assay: In vitro HDAC inhibition fluorescent assay, total HDAC; type: biochemical; details: Boc-Lys(acetyl)-AMC substrate
Method: as §2

[15] = test system: PC-3; assay: In vitro antiproliferative assay (MTT), PC-3; type: cell-based; details: Homo sapiens, 72 h
Method: as §1, with “The” for “All cell lines were maintained in Roswell Park Memorial Institute (RPMI) 1640 medium containing 10% fetal bovine serum at 37°C in a 5% CO2 humidified incubator. The”

[16] = target: T2, HDAC8 (Homo sapiens, UniProt Q9BY41); assay: In vitro HDAC inhibition fluorescent assay, HDAC8; type: biochemical; details: Boc-Lys(trifluoroacetyl)-AMC substrate
T2 sequence (Q9BY41 1-377): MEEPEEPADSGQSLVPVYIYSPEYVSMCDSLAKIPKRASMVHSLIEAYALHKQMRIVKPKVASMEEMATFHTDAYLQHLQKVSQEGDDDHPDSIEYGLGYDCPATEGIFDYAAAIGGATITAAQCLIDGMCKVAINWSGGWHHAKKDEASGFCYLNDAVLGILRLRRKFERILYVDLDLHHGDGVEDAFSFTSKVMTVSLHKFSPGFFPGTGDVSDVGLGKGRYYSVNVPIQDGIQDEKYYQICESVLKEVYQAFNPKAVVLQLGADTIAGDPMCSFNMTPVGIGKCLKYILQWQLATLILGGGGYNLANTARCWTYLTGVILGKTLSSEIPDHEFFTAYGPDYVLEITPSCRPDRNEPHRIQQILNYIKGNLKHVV
Method: as §2

[17] = parameters: method as in Konsoula and Jung, 2008; details: reported data of vorinostat; ref Konsoula and Jung, 2008; cited from earlier work

Sequence of HDAC2 (Q92769 whole entry, species assumed): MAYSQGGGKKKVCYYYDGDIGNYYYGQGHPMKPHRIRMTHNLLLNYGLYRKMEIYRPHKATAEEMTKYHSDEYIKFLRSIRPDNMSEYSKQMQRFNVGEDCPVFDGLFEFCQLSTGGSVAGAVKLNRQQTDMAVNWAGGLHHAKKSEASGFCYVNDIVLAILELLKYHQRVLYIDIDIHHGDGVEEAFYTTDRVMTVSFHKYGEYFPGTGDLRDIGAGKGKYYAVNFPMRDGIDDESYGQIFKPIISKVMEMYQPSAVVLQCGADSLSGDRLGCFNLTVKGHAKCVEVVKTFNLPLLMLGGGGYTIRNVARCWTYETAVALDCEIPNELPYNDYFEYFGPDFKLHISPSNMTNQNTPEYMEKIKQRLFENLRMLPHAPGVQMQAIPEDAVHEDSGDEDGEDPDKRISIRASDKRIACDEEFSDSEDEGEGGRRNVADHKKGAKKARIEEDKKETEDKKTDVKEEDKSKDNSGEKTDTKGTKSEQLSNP

Q: Which IC50 ([1]; range over MDA-MB-231, MCF-7, PC-3, SK-N-BE(2), KG-1, MOLT-4, HEL, read-out: IC50 values across all tested human cancer cell lines) does the source give for `O=C(CCCCCCC(=O)Nc1nc2ccc(OC(F)(F)F)cc2s1)NO` [Compound 1, N1-Hydroxy-N8-(6-(Trifluoromethoxy)benzo[d]thiazol-2-yl) Octanediamide] here?
A: The IC50 was 140 to 2740 nM.

Q: What about the IC50 [2] of the same molecule?
A: Its IC50 is 140 ± 7 nM.

Q: And the IC50 [3]?
A: Its IC50 is 770 ± 20 nM.

Q: What about the IC50 [4] of the same molecule?
A: Its IC50 is 12 ± 2 nM.

Q: What about the IC50 [5] of the same molecule?
A: Its IC50 is 330 ± 40 nM.

Q: And the “T/C (relative increment ratio, tumor volume)” value ([6]; 21 consecutive days, nude mice)?
A: The value was 55%.

Q: What about the “TGI (tumor growth inhibition, tumor weight)” value ([6]; 21 consecutive days, nude mice) of the same molecule?
A: Its value is 59%.

Q: What about the “mouse body weights (tolerability)” value ([6]; 21 days, Figure 6) of the same molecule?
A: Its value is “high tolerability and low toxicity”.

Q: What about the IC50 [7] of the same molecule?
A: The IC50 was 170 ± 7 nM.

Q: And the IC50 [8]?
A: The IC50 was 2740 ± 60 nM.

Q: What about the IC50 [9] of the same molecule?
A: The IC50 was 290 ± 7 nM.

Q: What about the half-life [10] of the same molecule?
A: Its half-life is > 120 min.

Q: And the half-life [11]?
A: Its half-life is 56 min.

Q: And the “level of acetyl-histone H4” value [12]?
A: The value was “dramatically increase”.

Q: What about the “level of acetyl-α-tubulin” value [12] of the same molecule?
A: Its value is “dramatically increase”.

Q: And the “effect on acetyl-α-tubulin compared with vorinostat” value ([12]; same concentration of 0.5 μM)?
A: Its value is “superior to that of vorinostat”.

Q: What about the IC50 [13] of the same molecule?
A: The IC50 was 650 ± 20 nM.

Q: What about the IC50 [14] of the same molecule?
A: Its IC50 is 120 ± 10 nM.

Q: And the IC50 [15]?
A: Its IC50 is 2520 ± 330 nM.

Q: What about the IC50 [16] of the same molecule?
A: Its IC50 is 3300 ± 200 nM.

Q: Which inhibition at 10 µM ([1]; at 10 μM, tested tumor cell lines, read-out: growth inhibition) does the source give for `Nc1nc2ccc(OC(F)(F)F)cc2s1` [Riluzole, reference compound] here?
A: Its inhibition at 10 µM is < 50%.

Q: What about the IC50 [2] of the same molecule?
A: The IC50 was > 10000 nM.

Q: And the IC50 [3]?
A: Its IC50 is > 10000 nM.

Q: What about the IC50 [13] of the same molecule?
A: Its IC50 is > 10000 nM.

Q: And the IC50 [15]?
A: Its IC50 is > 10000 nM.

Q: Which “level of acetyl-histone H4” value [12] does the source give for `O=C(CCCCCCC(=O)Nc1ccccc1)NO` [Vorinostat, suberoylanilide hydroxamic acid, reference compound] here?
A: The value was “dramatically increase”.

Q: And the “level of acetyl-α-tubulin” value [12]?
A: The value was “dramatically increase”.

Q: And the “t1/2 Human plasma” value [17]?
A: Its value is 75^b min.
